Test results from patent publication US20150111771A1, “Method for Identifying Agents Capable of Inducing Respiratory Sensitization and Array and Analytical Kits for Use in the Method” (SENZAGEN AB, priority 2012, published 2015).
Read-outs that look alike come from different tables or passages of the source.

Tests used:
[1] = test system: CD86 expression of MUTZ-3 cells; assay: CD86 expression of MUTZ-3 cells following chemical stimulation (flow cytometry); format: cell-based, human; conditions: 24 h at GARD input concentration; student's t-test vs corresponding vehicle, p<0.05, n=3
Method: FIG. 4: CD86 expression of MUTZ-3 cells following chemical stimulations. Data shown is an average of (chemical stimulations, n=3, DMSO and unstimulated cells (n=6), with error bars showing standard deviation. Statistical significance was determined by student's t-test, comparing each stimulation with its corresponding vehicle, with p<0.05 indicated by *.
Br J Haematol 2007, 138(3):281-290). […] Thereafter, cells were harvested and analyzed by flow cytometry.
All cell surface staining and washing steps were performed in PBS containing 1% BSA (w/v). Cells were incubated with specific mouse mAbs for 15 min at 4° C. The following mAbs were used for flow cytometry: FITC-conjugated CD1a (DakoCytomation, Glostrup, Denmark), CD34, CD86, and HLA-DR (BD Biosciences), PE-conjugated CD14 (DakoCytomation), CD54 and CD80 (BD Biosciences). Mouse IgG1, conjugated to FITC or PE were used as isotype controls (BD Biosciences) and PI was used to assess cell viability. […]
Prior to chemical challenge, the cells were quality controlled by measuring the cellular expression of common myeloid and dendritic cell markers using flow cytometry. […] Following chemical stimulation, the general maturity state of the cells was controlled again, as determined by the expression of the co-stimulatory marker CD86, with results presented in FIG. 4. […]

[2] = test system: respiratory sensitization; conditions: cited from earlier work
[3] = Max solubility of reference chemicals in cell medium; conditions: given for non-toxic compounds insoluble at 500 μM
[4] = test system: MUTZ-3 cells; assay: GARD transcriptional profiling of stimulated MUTZ-3 with GARD Respiratory Prediction Signature (PCA / SVM classification); conditions: for Transcriptional profile in PCA based on GRPS, by mechanistic subdomain: 24 h stimulation, 302 GRPS transcripts (FIG. 5B, 5C)
Method: Cultures were maintained at 200.000 cells/ml during expansion, with a media change every 3-4 days. No differentiating steps were performed and instead, the proliferating progenitor MUTZ-3 was used for stimulations. Prior to each experiment, the cells were immunophenotyped using flow cytometry as a quality control. Cells were seeded in 6-well plates at 200.000 cells/ml. Stock solutions of each compound were prepared in either DMSO or distilled water, and were subsequently diluted so the in-well concentrations corresponded to the GARD input concentration, and in-well concentrations of DMSO were 0.1%. Cells were incubated for 24 h at 37° C. and 5% CO2. Thereafter, cells were harvested and analyzed by flow cytometry. In parallel, harvested cells were lysed in TRIzol reagent (Invitrogen) and stored at −20° C. until RNA extraction. Stimulations with chemicals were performed in three individual experiments, so that triplicates samples were obtained.
In short, a phenotypic control of MUTZ-3 was performed prior to chemical stimulation. Stimulated cells were harvested and RNA was isolated. A control of the maturity state of the cells was performed by flow cytometric analysis of CD86. Preparation of cDNA and hybridization, washing and scanning of the Human Gene 1.0 ST Arrays (Affymetrix, Santa Clara, Calif., USA) was performed, according to standardized protocols provided by the manufacturer (Affymetrix).
In short, microarray data were normalized and quality checked with the RMA algorithm, using Affymetrix Expression Console (Affymetrix). […] The biological relevance of the GRPS was explored using Ingenuity Pathways Analysis (IPA) (Ingenuity Systems, Inc. Mountain View, USA), by performing a ‘Core Analysis’. […] Biological relevance was established by exploring the Canonical Pathways associated with input molecules.
The data set was divided into a training set and a test set, consisting of 70% and 30%, of the chemical compounds, respectively. The division was performed randomly, while maintaining the proportions of sensitizers and non-sensitizers in each subset at the same ratio as in the complete data set. A test biomarker signature was identified in the training set, using ANOVA filtering and backward elimination, as described above.
In addition, the test set contained nine samples of DMSO and unstimulated controls respectively. […] Any samples included in this analysis are inappropriate to include in a test set due to the risk of over fitting.

[5] = test system: MUTZ-3 cells; assay: Cytotoxicity by propidium iodide staining, relative viability of stimulated cells (Rv90); format: cell-based, human; conditions: concentration yielding 90% relative viability
Method: All chemicals were from Sigma-Aldrich, St. Louis, Mo., USA. Compounds were dissolved in either dimethyl sulfoxide (DMSO) or distilled water.

[6] = clinical observations in humans
[7] = external test set, biological triplicates, mapped into PCA space of train data (FIG. 6A)

In the case of O=C=NCCCCCCN=C=O [Hexamethylen diisocyanate], the “CD86 expression following chemical stimulation” value [1] is given as “statistically significant upregulation of CD86”, the “Classification of reference chemical as respiratory sensitizer or non-sensitizer” value [2, 6] is given as “respiratory sensitizers” and the Max solubility [3] is given as 100 µM.
For CC(C)O [Isopropanol], the “Classification of reference chemical as respiratory sensitizer or non-sensitizer” value [2, 6] is listed as “non-sensitizers”.
In the case of CCOC(=O)c1ccccc1C(=O)OCC [diethyl phtalate], the “Position of external test set samples in PCA plot based on the GRPS” value (from here on “Position of external test set samples”) [4, 7] is reported as “correctly grouped together with non-sensitizers”.
In the case of Oc1ccccc1 [phenol], the “Position of external test set samples” value [4, 7] is reported as “correctly grouped together with non-sensitizers”.
In the case of CCCCCCCC/C=C\CCCCCCCC(=O)OCCOCC(OCCO)C1OCC(OCCO)C1OCCO (centres unmarked) [Tween 80, polyoxyethylene (20) sorbitan monooleate], the “Classification of reference chemical as respiratory sensitizer or non-sensitizer” value [2, 6] is listed as “non-sensitizers”.
For O=CCCCC=O [Glutaraldehyde], the Rv90 [5] was 10 µM, the “CD86 expression following chemical stimulation” value [1] was “statistically significant upregulation of CD86” and the “Transcriptional profile in PCA based on GRPS, by mechanistic subdomain” value (shortened to “Transcriptional profile in PCA based”) [4] was “groups closely with both acid anhydrides and diisocyanates”. For the same compound, the “Classification of reference chemical as respiratory sensitizer or non-sensitizer” value [2, 6] was “respiratory sensitizers”.
For COC(=O)c1ccccc1O [Methyl salicylate], the “Classification of reference chemical as respiratory sensitizer or non-sensitizer” value [2, 6] is given as “non-sensitizers”.
For [Cl][Pt-2]([Cl])([Cl])([Cl])([Cl])[Cl].[NH4+].[NH4+] [Ammonium hexachloroplatinate], the “Transcriptional profile in PCA based” value [4] is given as “most extreme transcriptional changes”, the “Classification of reference chemical as respiratory sensitizer or non-sensitizer” value [2, 6] is given as “respiratory sensitizers” and the Max solubility [3] is given as 35 µM.
In the case of CCCCCCCCCCCCOS(=O)(=O)[O-].[Na+] [sodium dodecyl sulphate], the “Position of external test set samples” value [4, 7] is reported as “correctly grouped together with non-sensitizers”.
In the case of CC(O)CO (centres unmarked) [Propylene glycol], the “Classification of reference chemical as respiratory sensitizer or non-sensitizer” value [2, 6] is listed as “non-sensitizers”.
For OCC(O)CO [glycerol], the “Position of external test set samples” value [4] was “correctly grouped together with non-sensitizers”.
In the case of N.N.O=S(=O)(O)OOS(=O)(=O)O [Ammonium persulfate], the “Transcriptional profile in PCA based” value [4] is listed as “most extreme transcriptional changes” and the “Classification of reference chemical as respiratory sensitizer or non-sensitizer” value [2] is listed as “respiratory sensitizers”.
In the case of O=C=Nc1ccc(Cc2ccc(N=C=O)cc2)cc1 [Methylene diphenol diisocyanate], the “Classification of reference chemical as respiratory sensitizer or non-sensitizer” value [2, 6] is listed as “respiratory sensitizers” and the Max solubility [3] is listed as 50 µM.
In the case of O=C(O)c1ccc2c(c1)C(=O)OC2=O [Trimellitic anhydride], the “Classification of reference chemical as respiratory sensitizer or non-sensitizer” value [2, 6] is given as “respiratory sensitizers” and the Max solubility [3] is given as 150 µM.
For Clc1ccccc1 [Chlorobenzene], the “Position of external test set samples” value [4, 7] is listed as “correctly grouped together with non-sensitizers”, the “Classification of reference chemical as respiratory sensitizer or non-sensitizer” value [2] is listed as “non-sensitizers” and the Max solubility [3] is listed as 98 µM.
With O=C(O)c1ccccc1O [salicylic acid] the “Position of external test set samples” value [4] was “correctly grouped together with non-sensitizers”.
In the case of O=C1C=CC(=O)O1 [Maleic Anhydride], the “Classification of reference chemical as respiratory sensitizer or non-sensitizer” value [2] is given as “respiratory sensitizers”.
For O=C1OC(=O)c2ccccc21 [Phtalic Anhydride], the “Classification of reference chemical as respiratory sensitizer or non-sensitizer” value [2, 6] is listed as “respiratory sensitizers” and the Max solubility [3] is listed as 200 µM.
For O=S(=O)([O-])[O-].[Zn+2] [Zinc sulphate], the “Classification of reference chemical as respiratory sensitizer or non-sensitizer” value [2, 6] is listed as “non-sensitizers”.
With CCCCCCCC(=O)O [octanoic acid] the “Position of external test set samples” value [4] was “correctly grouped together with non-sensitizers”.
In the case of CCCCO [1-Butanol], the “Classification of reference chemical as respiratory sensitizer or non-sensitizer” value [2] is listed as “non-sensitizers”.
In the case of O=Cc1ccccc1 [benzaldehyde], the “Position of external test set samples” value [4, 7] is reported as “correctly grouped together with non-sensitizers”.
